According to PMC8584173, “The Cytotoxic Effect of Copper (II) Complexes with Halogenated 1,3-Disubstituted Arylthioureas on Cancer and Bacterial Cells” (International Journal of Molecular Sciences, 2021):

What was measured:
SW620 cells = test: Annexin V-FITC/PI flow cytometry, SW620; assay type: cell-based, human; details: SW620, IC50 dose, 72 h
Method: The cells were cultured and harvested under the conditions described in the cell culture section. […] The effect of these compounds on the process of early and late apoptosis and necrosis was determined, as described previously, by dual staining with annexin V-FITC and propidium iodide according to manufacturer’s protocol (Becton Dickinson). The cells that were annexin V-FITC positive and PI-negative were identified as early apoptotic and annexin V-FITC and PI-positive as late apoptotic or necrotic.

[1] = test system: Glutathione S-transferase omega-1 (GSTO1_HUMAN); test: LC–MS proteome analysis, GSTO1; assay type: cell-based, Homo sapiens; details: IC50 concentration, % of control
Method: (§1) Enzymes involved in oxidoreductive potential were analyzed in the cell lysates obtained after treatment cells with selected conjugates for 24 h. Cells were washed with phosphate-buffered saline (PBS) and harvested, then centrifuged at 1000× g for 10 min. Then, lysis buffer (containing protease inhibitor, 1% RIPA Lysis and Extraction Buffer (ThermoFisher)) and cold PBS were added, and samples were sonicated three times in ice bath. Next, the cell lysates were centrifuged at 14,000× g at 4 °C for 15 min, and then supernatants were stored at […] before use. Protein concentration was measured by the Bradford method.
(§2) Normalized protein concentrations (5 µg) from cell lysate were precipitated by ice cold (–20 °C) acetonitrile (ACN, Merck, in ratio 1:4). Then, samples were centrifuged (–9 °C, 30 min., 18,000× g), the supernatant was discarded and ACN excess was evaporated using a vacuum centrifuge (5 min., room temp.). Protein pellet was dissolved in 40 mM ammonium bicarbonate. An amount of 500 mM dithiothreitol (DTT, with final concentration 20 mM) and 1 M iodoacetamide (IAA, with final concentration 40 mM) were used for reduction and alkylation processes. After 16 h of incubation in 37 °C with Trypsin Gold (Promega), digested protein samples were diluted with 0.1% formic acid (ThermoFisher) and centrifuged (+2 °C, 30 min, 18,000× g).
(§3) LC–MS analysis was carried out with the use of nanoUHPLC (nanoElute, Bruker) coupled by CaptiveSpray (Bruker) to ESI-Q-TOF mass spectrometer (Compact, Bruker). Two-column separation method was used, i.e., pre-column (300 µm × 5 mm, C18 PepMap 100, 5 µm, 100Å, Thermo Scientific) and Aurora separation column with CSI fitting (75 µm × 250 mm, C18 1.6 µm) in gradient 2% B to 35% B in 90 min with the 300 nL/min flow rate. Mobile phases (A) 0.1% formic acid in water and (B) 0.1% formic acid in ACN were used.
(§4) Sample ionizations were performed at a gas flow of 3.0 L/min, temperature of 150 °C and voltage of the capillary at 1600 V. The quadrupole energy was fixed to 5.0 eV and collision chamber energy 7.0 eV, with an ion transfer time of 90 µs. The ions were analyzed in the positive polarity mode in the range 150–2200 m/z, with the acquisition frequency of the 1 Hz spectrum, as well as with the autoMS/MS system.
(§5) The collected spectra were analyzed and calibrated using DataAnalysis software (Bruker) and then identified in ProteinScape (Bruker) by the MASCOT server. Protein identification was conducted using the online SwissProt and NCBIprot databases, and their references and biological significance were identified using Reactome.org, String.org and KEGG.

[2] = test system: Glutathione reductase, mitochondrial (GSHR_HUMAN); test: LC–MS proteome analysis, GSHR; assay type: cell-based, Homo sapiens; details: IC50 concentration, % of control
Method: as §1, §2, §3, §4, §5

[3] = test system: Superoxide dismutase [Cu-Zn] (SODC_HUMAN); test: LC–MS proteome analysis, SODC; assay type: cell-based, Homo sapiens; details: for Protein Intensity, % (SODC): IC50 concentration, % of control
Method: as §1, §2, §3, §4, §5

[4] = test system: Superoxide dismutase [Mn], mitochondrial (SODM_HUMAN); test: LC–MS proteome analysis, SODM; assay type: cell-based, Homo sapiens; details: IC50 concentration, % of control
Method: as §1, §2, §3, §4, §5

[5] = test system: Peroxiredoxin-2 (PRDX2_HUMAN); test: LC–MS proteome analysis, PRDX2; assay type: cell-based, Homo sapiens; details: IC50 concentration, % of control
Method: as §1, §2, §3, §4, §5

[6] = test system: Peroxiredoxin-4 (PRDX4_HUMAN); test: LC–MS proteome analysis, PRDX4; assay type: cell-based, Homo sapiens; details: for Protein Intensity, % (PRDX4): IC50 concentration, % of control
Method: as §1, §2, §3, §4, §5

[7] = test system: Peroxiredoxin-5, mitochondrial (PRDX5_HUMAN); test: LC–MS proteome analysis, PRDX5; assay type: cell-based, Homo sapiens; details: IC50 concentration, % of control
Method: as §1, §2, §3, §4, §5

[8] = test system: Peroxiredoxin-6 (PRDX6_HUMAN); test: LC–MS proteome analysis, PRDX6; assay type: cell-based, Homo sapiens; details: IC50 concentration, % of control
Method: as §1, §2, §3, §4, §5

[9] = test system: detoxifying and ROS-scavenging enzymes (GST, GR, SOD, PRDX); test: LC–MS proteome analysis, all 12 tested enzymes (text summaries); assay type: cell-based, human; details: PC3, IC50 concentration, span over enzymes
Method: as §1, §2
LC–MS analysis was carried out with the use of nanoUHPLC (nanoElute, Bruker) coupled by CaptiveSpray (Bruker) to ESI-Q-TOF mass spectrometer (Compact, Bruker). […]
as §4
The collected spectra were analyzed and calibrated using DataAnalysis software (Bruker) and then identified in ProteinScape (Bruker) by the MASCOT server. […]

standard staphylococci = test: MIC, standard staphylococci; assay type: cell-based, Staphylococcus; details: standard staphylococci / S. aureus isolates
Method: The antimicrobial activity of the compounds was tested on Gram-positive bacteria (Staphylococcus aureus NCTC 4163, Staphylococcus aureus ATCC 25923, Staphylococcus aureus ATCC 6538, Staphylococcus aureus ATCC 29213, Staphylococcus epidermidis ATCC 12228, Staphylococcus epidermidis ATCC 35984), Gram-negative rods (Escherichia coli ATCC 10538, Escherichia coli ATCC 25922, Pseudomonas aeruginosa ATCC 15442, Pseudomonas aeruginosa ATCC 27863) and yeasts (Candida albicans ATCC 10231, Candida albicans ATCC 90028, Candida parapsilosis ATCC 22019). Hospital methicillin-resistant strains of Staphylococcus aureus and Staphylococcus epidermidis were obtained from the collection of the Department of Pharmaceutical Microbiology, Medical University of Warsaw, Poland.
Antifungal activities were assessed using Mueller–Hinton agar + 2% glucose and 0.5 µg/mL methylene blue dye medium. Sterile filter paper discs (9 mm diameter, Whatman Number 3 chromatography paper) were dripped with tested compound solutions (in dimethylsulfoxide, DMSO) to load 400 μg of a given compound per disc. Dry discs were placed on the surface of appropriate agar medium. The results (diameter of the growth inhibition zone) were read after 18 h of incubation at 35 °C. Minimal inhibitory concentration (MIC) was tested by the twofold serial microdilution method (in 96-well microtiter plates) using Mueller–Hinton broth medium (Beckton Dickinson) for bacteria or RPMI-1640 medium for Candida species, according to CLSI guidelines. The stock solution of tested agent was prepared in DMSO and diluted in sterile water. […] The final inoculum of all studied microorganisms was 10^5 CFU/ mL^−1 (colony forming units per ml). Minimal inhibitory concentrations (the lowest concentration of a tested agent that prevents visible growth of a microorganism) were read after 18 h (bacteria) or 24 h (yeasts) of incubation at 35 °C.

Structure (SMILES)	early apoptosis, % of cells (SW620 cells)	Protein Intensity, % (GSTO1) ([1]; PC3, 24 h) [%]	Protein Intensity, % (GSTO1) ([1]; SW480, 24 h) [%]	Protein Intensity, % (GSTO1) ([1]; SW620, 24 h) [%]	Protein Intensity, % (GSHR) ([2]; PC3, 24 h) [%]	Protein Intensity, % (GSHR) ([2]; SW480, 24 h) [%]	Protein Intensity, % (GSHR) ([2]; SW620, 24 h) [%]	Protein Intensity, % (SODC) ([3]; PC3, 24 h) [%]	Protein Intensity, % (SODC) ([3]; SW480, 24 h) [%]	Protein Intensity, % (SODC) ([3]; SW620, 24 h) [%]	Protein Intensity, % (SODM) ([4]; PC3, 24 h) [%]	Protein Intensity, % (SODM) ([4]; SW480, 24 h) [%]	Protein Intensity, % (SODM) ([4]; SW620, 24 h) [%]	Protein Intensity, % (PRDX2) ([5]; PC3, 24 h) [%]	Protein Intensity, % (PRDX2) ([5]; SW480, 24 h) [%]	Protein Intensity, % (PRDX2) ([5]; SW620, 24 h) [%]	Protein Intensity, % (PRDX4) ([6]; PC3, 24 h) [%]	Protein Intensity, % (PRDX4) ([6]; SW480, 24 h) [%]	Protein Intensity, % (PRDX4) ([6]; SW620, 24 h) [%]	Protein Intensity, % (PRDX5) ([7]; PC3, 24 h) [%]	other results
O=[N+]([O-])c1cc([N+]2=C(Nc3ccc(I)cc3)[S][Cu-2]23[S]C(Nc2ccc(I)cc2)=[N+]3c2ccc(Cl)c([N+](=O)[O-])c2)ccc1Cl [Compound 8, Copper (II) complex with 1-(4-iodophenyl)-3-(4-chloro-3-nitrophenyl)thiourea]	approximately 20%	31.6	52.4	65.0	68.5	74.3	79.3	33.0	88.2	64.5	29.4	94.3	92.7	39.9	78.3	88.6	30.8	78.2	93.9	42.0	Protein Intensity, % (PRDX5) ([7]; SW480, 24 h): 81.7%; Protein Intensity, % (PRDX5) ([7]; SW620, 24 h): 74.4%; Protein Intensity, % (PRDX6) ([8]; PC3, 24 h): 53.7%; Protein Intensity, % (PRDX6) ([8]; SW480, 24 h): 71.1%; Protein Intensity, % (PRDX6) ([8]; SW620, 24 h): 77.6%; reduction of intensity of the 12 tested enzymes [9]: 31.5–75.2%; MIC (standard staphylococci): 4 µg/mL
O=[N+]([O-])c1cc([N+]2=C(Nc3ccccc3F)[S][Cu-2]23[S]C(Nc2ccccc2F)=[N+]3c2ccc(Cl)c([N+](=O)[O-])c2)ccc1Cl [Compound 7, Copper (II) complex with 1-(2-fluorophenyl)-3-(4-chloro-3-nitrophenyl)thiourea]	35.4% ± 2.8%	68.6	45.1	52.5	61.2	91.7	67.3	15.4	40.6	44.7	25.2	65.1	45.3	32.2	69.4	58.6	35.7	58.3	73.0	36.7	reduction of SODC intensity ([3]; SW480, IC50 concentration): 59.4%; reduction of PRDX4 intensity ([6]; SW480, IC50 concentration): 41.7%; Protein Intensity, % (PRDX5) ([7]; SW480, 24 h): 91.0%; Protein Intensity, % (PRDX5) ([7]; SW620, 24 h): 81.4%; Protein Intensity, % (PRDX6) ([8]; PC3, 24 h): 35.0%; Protein Intensity, % (PRDX6) ([8]; SW480, 24 h): 68.3%; Protein Intensity, % (PRDX6) ([8]; SW620, 24 h): 67.5%; reduction of intensity of the 12 tested enzymes [9]: 20.8-87.6%; MIC (standard staphylococci): 16 to 32 µg/mL
